What was measured:
Pyricularia oryzae = test: microbe, parasite or virus in culture; assay type: cell-based; details: 168 h, read-out: control compared to the untreated check (radial growth)
Phakopsora pachyrhizi = Phakopsora pachyrhizi test in soybean, preventive, in vivo on plants; details: in Glycine max, read-out: Efficacy (% control), disease severity compared to the untreated check
Alternaria solani = Alternaria solani (early blight of tomato/potato) in vitro test, radial growth on potato dextrose agar; assay type: cell-based; details: 168 h, 300 ppm in potato dextrose agar, 25° C., 60% relative humidity, seven days, read-out: control compared to the untreated check (radial growth)
[1] = system: Septoria lycopersici/Corynespora cassicola (CORYCA); test: Septoria lycopersici/Corynespora cassicola (CORYCA) (leaf spot of tomato) in vitro test, radial growth on potato dextrose agar; assay type: cell-based; details: 168 h, 300 ppm in potato dextrose agar, 25° C., 70% relative humidity, seven days, read-out: control compared to the untreated check (radial growth)
Botrytis cinerea = Botrytis cinerea (gray mold) in vitro test, radial growth on potato dextrose agar; assay type: cell-based; details: 168 h, 300 ppm in potato dextrose agar, 22° C., 90% relative humidity, seven days, read-out: control compared to the untreated check (radial growth)
Rhizoctonia solani = Rhizoctonia solani (rice sheath blight/potato black scurf) in vitro test, radial growth on potato dextrose agar; assay type: cell-based; details: 168 h, 300 ppm in potato dextrose agar, 25° C., 60% relative humidity, seven days, read-out: control compared to the untreated check (radial growth)

CCN(C)C=Nc1cc(F)cc(N(C)c2cc(C)cc(F)c2)c1C [Compound 119, N-ethyl-N′-(5-fluoro-3-((3-fluoro-5-methylphenyl)(methyl)amino)-2-methylphenyl)-N-methylformimidamide]
≥ 70%: inhibition of growth at 300 ppm (Pyricularia oryzae) | pest or weed control at 500 ppm (Phakopsora pachyrhizi) | inhibition of growth at 300 ppm (Alternaria solani) | inhibition of growth at 300 ppm [1] | inhibition of growth at 300 ppm (Botrytis cinerea)

CCN(C)C=Nc1cc(C)cc(N(C)c2c(C)cccc2F)c1Cl [Compound 138, N′-(2-chloro-3-((2-fluoro-6-methylphenyl)(methyl)amino)-5-methylphenyl)-N-ethyl-N-methylformimidamide]
≥ 70%: inhibition of growth at 300 ppm (Pyricularia oryzae) | inhibition of growth at 300 ppm (Rhizoctonia solani) | inhibition of growth at 300 ppm (Alternaria solani) | inhibition of growth at 300 ppm [1]

CCN(C)C=Nc1cc(C)cc(Nc2ccccc2F)c1C [Compound 6, N-ethyl-N′-(3-((2-fluorophenyl)amino)-2,5-dimethylphenyl)-N-methylformimidamide]
≥ 70%: inhibition of growth at 300 ppm (Pyricularia oryzae) | inhibition of growth at 300 ppm (Rhizoctonia solani) | inhibition of growth at 300 ppm (Alternaria solani) | inhibition of growth at 300 ppm [1]

CCN(C)C=Nc1cc(Cl)cc(Nc2ccccc2F)c1C [Compound 165, N′-(5-chloro-3-((2-fluorophenyl)amino)-2-methylphenyl)-N-ethyl-N-methylformimidamide]
≥ 70%: inhibition of growth at 300 ppm (Pyricularia oryzae) | inhibition of growth at 300 ppm (Rhizoctonia solani) | inhibition of growth at 300 ppm (Alternaria solani) | inhibition of growth at 300 ppm [1]

CCN(C)C=Nc1cc(F)cc(N(C)c2ccc(Cl)cc2F)c1C [Compound 140, N′-(3-((4-chloro-2-fluorophenyl)(methyl)amino)-5-fluoro-2-methylphenyl)-N-ethyl-N-methylformimidamide]
≥ 70%: inhibition of growth at 300 ppm (Pyricularia oryzae) | inhibition of growth at 300 ppm (Rhizoctonia solani) | inhibition of growth at 300 ppm (Alternaria solani) | inhibition of growth at 300 ppm [1] | inhibition of growth at 300 ppm (Botrytis cinerea)

CCN(C)C=Nc1cc(C)cc(Nc2ccccc2OC(F)(F)F)c1Cl [Compound 302, N′-(2-chloro-5-methyl-3-((2-(trifluoromethoxy)phenyl)amino)phenyl)-N-ethyl-N-methylformimidamide]
≥ 70%: inhibition of growth at 300 ppm (Pyricularia oryzae) | inhibition of growth at 300 ppm (Rhizoctonia solani) | inhibition of growth at 300 ppm (Alternaria solani) | inhibition of growth at 300 ppm [1] | inhibition of growth at 300 ppm (Botrytis cinerea)

CCN(C)C=Nc1cc(Cl)cc(Cc2ccc(F)c(Cl)c2)c1C [Compound 130, N′-(5-chloro-3-(3-chloro-4-fluorobenzyl)-2-methylphenyl)-N-ethyl-N-methylformimidamide]
≥ 70%: inhibition of growth at 300 ppm (Pyricularia oryzae) | pest or weed control at 500 ppm (Phakopsora pachyrhizi) | inhibition of growth at 300 ppm (Rhizoctonia solani) | inhibition of growth at 300 ppm (Alternaria solani) | inhibition of growth at 300 ppm [1]

CCN(C)C=Nc1cc(F)cc(Nc2ccc(F)cc2F)c1C [Compound 76, N′-(3-((2,4-difluorophenyl)amino)-5-fluoro-2-methylphenyl)-N-ethyl-N-methylformimidamide]
≥ 70%: inhibition of growth at 300 ppm (Pyricularia oryzae) | inhibition of growth at 300 ppm (Rhizoctonia solani) | inhibition of growth at 300 ppm (Alternaria solani) | inhibition of growth at 300 ppm [1] | inhibition of growth at 300 ppm (Botrytis cinerea)

CCN(C)C=Nc1cc(C)cc(Nc2ccc(F)c(F)c2)c1Cl [Compound 72, N′-(2-chloro-3-((3,4-difluorophenyl)amino)-5-methylphenyl)-N-ethyl-N-methylformimidamide]
≥ 70%: inhibition of growth at 300 ppm (Pyricularia oryzae) | inhibition of growth at 300 ppm (Rhizoctonia solani) | inhibition of growth at 300 ppm (Alternaria solani) | inhibition of growth at 300 ppm [1] | inhibition of growth at 300 ppm (Botrytis cinerea)

CCN(C)C=Nc1cc(OC)cc(Nc2ccccc2OC(F)(F)F)c1C [Compound 300, N-ethyl-N′-(5-methoxy-2-methyl-3-((2-(trifluoromethoxy)phenyl)amino)phenyl)-N-methylformimidamide]
≥ 70%: inhibition of growth at 300 ppm (Pyricularia oryzae) | pest or weed control at 500 ppm (Phakopsora pachyrhizi) | inhibition of growth at 300 ppm (Rhizoctonia solani) | inhibition of growth at 300 ppm (Alternaria solani) | inhibition of growth at 300 ppm [1]

CCN(C)C=Nc1cc(C)cc(N(C)c2ccccc2)c1Cl [Compound 10, N′-(2-chloro-5-methyl-3-(methyl(phenyl)amino)phenyl)-N-ethyl-N-methylformimidamide]
≥ 70%: inhibition of growth at 300 ppm (Pyricularia oryzae) | inhibition of growth at 300 ppm (Alternaria solani) | inhibition of growth at 300 ppm [1] | inhibition of growth at 300 ppm (Botrytis cinerea)

CCN(C)C=Nc1cc(OC)cc(Nc2ccc(F)c(OC)c2)c1C [Compound 276, N-ethyl-N′-(3-((4-fluoro-3-methoxyphenyl)amino)-5-methoxy-2-methylphenyl)-N-methylformimidamide]
≥ 70%: inhibition of growth at 300 ppm (Pyricularia oryzae) | pest or weed control at 500 ppm (Phakopsora pachyrhizi) | inhibition of growth at 300 ppm (Rhizoctonia solani) | inhibition of growth at 300 ppm (Alternaria solani) | inhibition of growth at 300 ppm [1]

CCN(C)C=Nc1cc(C#N)cc(Cc2ccccc2)c1C [Compound 308, N′-(3-benzyl-5-cyano-2-methylphenyl)-N-ethyl-N-methylformimidamide]
≥ 70%: inhibition of growth at 300 ppm (Pyricularia oryzae) | inhibition of growth at 300 ppm (Rhizoctonia solani) | inhibition of growth at 300 ppm (Alternaria solani) | inhibition of growth at 300 ppm [1] | inhibition of growth at 300 ppm (Botrytis cinerea)

CCN(C)C=Nc1cc(F)cc(Nc2ccccc2OC(F)(F)F)c1C [Compound 303, N-ethyl-N′-(5-fluoro-2-methyl-3-((2-(trifluoromethoxy)phenyl)amino)phenyl)-N-methylformimidamide]
≥ 70%: inhibition of growth at 300 ppm (Pyricularia oryzae) | inhibition of growth at 300 ppm (Rhizoctonia solani) | inhibition of growth at 300 ppm (Alternaria solani) | inhibition of growth at 300 ppm [1] | inhibition of growth at 300 ppm (Botrytis cinerea)

CCN(C)C=Nc1cc(F)cc(Nc2ccc(Cl)cc2F)c1C [Compound 136, N′-(3-((4-chloro-2-fluorophenyl)amino)-5-fluoro-2-methylphenyl)-N-ethyl-N-methylformimidamide]
≥ 70%: inhibition of growth at 300 ppm (Pyricularia oryzae) | inhibition of growth at 300 ppm (Rhizoctonia solani) | inhibition of growth at 300 ppm (Alternaria solani) | inhibition of growth at 300 ppm [1] | inhibition of growth at 300 ppm (Botrytis cinerea)

CCc1cccc(Nc2cc(Cl)cc(N=CN(C)CC)c2C)n1 [Compound 243, N′-(5-chloro-3-((6-ethylpyridin-2-yl)amino)-2-methylphenyl)-N-ethyl-N-methylformimidamide]
≥ 70%: inhibition of growth at 300 ppm (Pyricularia oryzae) | inhibition of growth at 300 ppm (Rhizoctonia solani) | inhibition of growth at 300 ppm (Alternaria solani) | inhibition of growth at 300 ppm [1]

CCN(C)C=Nc1cc(F)cc(Nc2cccc(OC)c2)c1C [Compound 30, N-ethyl-N′-(5-fluoro-3-((3-methoxyphenyl)amino)-2-methylphenyl)-N-methylformimidamide]
≥ 70%: inhibition of growth at 300 ppm (Pyricularia oryzae) | pest or weed control at 500 ppm (Phakopsora pachyrhizi) | inhibition of growth at 300 ppm (Rhizoctonia solani) | inhibition of growth at 300 ppm (Alternaria solani) | inhibition of growth at 300 ppm [1]

CCN(C)C=Nc1cc(F)cc(Cc2ccccc2F)c1C [Compound 141, N-ethyl-N′-(5-fluoro-3-(2-fluorobenzyl)-2-methylphenyl)-N-methylformimidamide]
≥ 70%: inhibition of growth at 300 ppm (Pyricularia oryzae) | inhibition of growth at 300 ppm (Rhizoctonia solani) | inhibition of growth at 300 ppm [1] | inhibition of growth at 300 ppm (Botrytis cinerea)

CCN(C)C=Nc1cc(F)cc(Nc2c(C)cccc2F)c1C [Compound 121, N-ethyl-N′-(5-fluoro-3-((2-fluoro-6-methylphenyl)amino)-2-methylphenyl)-N-methylformimidamide]
≥ 70%: inhibition of growth at 300 ppm (Pyricularia oryzae) | pest or weed control at 500 ppm (Phakopsora pachyrhizi) | inhibition of growth at 300 ppm (Alternaria solani) | inhibition of growth at 300 ppm [1]

CCN(C)C=Nc1cc(Cl)cc(Nc2cccc(F)c2)c1C [Compound 166, N′-(5-chloro-3-((3-fluorophenyl)amino)-2-methylphenyl)-N-ethyl-N-methylformimidamide]
≥ 70%: inhibition of growth at 300 ppm (Pyricularia oryzae) | inhibition of growth at 300 ppm (Alternaria solani) | inhibition of growth at 300 ppm [1] | inhibition of growth at 300 ppm (Botrytis cinerea)

CCN(C)C=Nc1cc(C)cc(N(C)c2cccc(C)c2)c1Cl [Compound 43, N′-(2-chloro-5-methyl-3-(methyl(m-tolyl)amino)phenyl)-N-ethyl-N-methylformimidamide]
≥ 70%: pest or weed control at 500 ppm (Phakopsora pachyrhizi) | inhibition of growth at 300 ppm (Alternaria solani) | inhibition of growth at 300 ppm [1] | inhibition of growth at 300 ppm (Botrytis cinerea)

Reference: US12545639B2, “3-substituted phenylamidine compounds, preparation and use thereof” (PI INDUSTRIES LTD., priority 2019, dated 2026)
